Laboratory results from patent US20240218344A1, “LIQUID THROMBIN REAGENT” (Instrumentation Laboratory Company, priority 2022, published 2024).
Structures can show the parent of a compound that is named as a salt.

What was measured:
Type in all cases: biochemical
[1] = biological target: bovine thrombin (Bos taurus, UniProt P00735); assay: Stability of liquid thrombin reagent with alkylated guanidine derivatives, clotting assay; details: 25 mM guanidine derivative, approximately 75 U/mL bovine thrombin, MES pH 6.3, stored at 37° C. for 7 or 14 days; FIG. 5
Method: (§1) In the clotting assay, the liquid thrombin reagent was diluted with an aqueous buffer to a final thrombin concentration of within 5 to 15 U/mL of thrombin. Then, 20 to 40 microliters (μL) of the diluted liquid thrombin reagent was mixed with 80 μL of a reaction buffer containing 20 mM HEPES, pH 7.4, containing 150 mM NaCl and 0.5% BSA (bovine serum albumin). After an incubation period of 60 to 90 seconds at 37° C., 80 μL of normal pooled plasma was added to the mixture and the time to clot was determined using a threshold algorithm.
The effects of guanidine derivatives were analyzed using a clotting assay. In this experiment, liquid thrombin reagents containing bovine thrombin were diluted to a final concentration of approximately 75 U/mL thrombin with an aqueous buffer comprising a MES buffer containing 20 mM MES, pH 6.3, and 0.1% ProClin™ 300, with and without 25 mM of 1-methylguanidine (MMG), 25 mM of 1.1-dimethylguanidine (DMG) and 25 mM of 1,1-diethylguanidine (DEG).
Liquid thrombin reagents of the type described herein containing guanidine derivatives, and one without a guanidine derivative, were stored at 37° C. for 0, 7, and 14 days and tested using the clotting assay after mixing with normal pooled plasma.

[2] = tested on: factor Xa; assay: Factor Xa chromogenic assay with guanidine and guanidine derivatives; details: dilution series in water, 6 nkat/mL factor Xa, substrate S-2732, 405 nm; FIG. 4
Method: In this experiment, the effects of guanidine sulfate and the guanidine derivatives: 1-methylguanidine sulfate, 1,1-dimethylguanidine sulfate, 1,1-diethylguanidine, and N-benzyl, N-methylguanidine sulfate were analyzed using a chromogenic assay. A series of dilutions was prepared in water with guanidine or a guanidine derivative of the type described herein. 40 μL of each of the guanidine or guanidine derivatives were mixed for 20 to 60 seconds with 40 μL of 6 nanokatal per milliliter (nkat/mL) factor Xa diluted in 20 mM HEPES, pH 7.5 buffer. After an incubation period of 150 to 180 seconds, 100 μL of the factor Xa chromogenic substrate S-2732 (1.5 mM) was added to each of the guanidine and factor Xa mixtures and was chromogenically measured at 405 nm milli-absorbance per minute (mAbs/min) after a 20 second delay.

[3] = tested on: bovine thrombin; assay: Stability of liquid thrombin reagent with apixaban, clotting assay; details: 500 ng/ml apixaban, approximately 100 U/mL bovine thrombin, stored at 45° C. for 0-14 days; FIG. 3
Method: In the clotting assay, the liquid thrombin reagent was diluted with an aqueous buffer to a final thrombin concentration of within 5 to 15 U/mL of thrombin. Then, 20 to 40 microliters (μL) of the diluted liquid thrombin reagent was mixed with 80 μL of a reaction buffer containing 20 mM HEPES, pH 7.4, containing 150 mM NaCl and 0.5% BSA (bovine serum albumin). After an incubation period of 60 to 90 seconds at 37° C., 80 μL of normal pooled plasma was added to the mixture and the time to clot was determined using a threshold algorithm. In this experiment, the effects of the direct factor Xa inhibitor apixaban was analyzed using a clotting assay. Liquid thrombin reagent containing low purity grade bovine thrombin was diluted to a final concentration of approximately 100 U/mL thrombin in an aqueous buffer containing 20 mM MES, pH 6.1, 100 mM NaCl, 25 mM sodium acetate, 25 mM sodium lactate, 5 mM CaCl2, 0.5% BSA, and 0.4 g/L NaN3. Apixaban was dissolved in dimethyl sulfoxide (DMSO) and diluted to a final concentration of 500 ng/ml apixaban in a sample of the liquid thrombin reagent. Liquid thrombin reagents with and without apixaban were stored at 45° C. for 0, 2, 4, 7, 10 and 14 days, and tested in quadruplicate by the clotting assay after mixture with normal pooled plasma. […]

[4] = tested on: thrombin; assay: Alkylated guanidine concentrations for thrombin stability, clotting assay; details: less than 20 mM DMG, 7 U/mL thrombin, 37° C. for 20 days versus 2 to 8° C.; FIG. 6
Method: as §1
A series of liquid thrombin reagents containing dimethylguanidine (DMG) were analyzed using a clotting assay. A series of liquid thrombin reagents containing 7 U/mL liquid thrombin were prepared in an aqueous buffer containing 20 mM MES, pH 6.3, 0.1% ProClin™ 300, and a final concentration of 5, 10, 15, 20, 25, or 30 mM DMG. The resulting liquid thrombin reagents were stored at 37° C for 20 days, and the remaining thrombin activity was compared to the liquid thrombin reagent containing the same concentration of guanidine derivative stored at 2 to 8° C. for 20 days.

[5] = tested on: thrombin; assay: Thrombin concentrations for liquid thrombin reagent stability, clotting assay; details: 30 mM DMG, 37° C. for 7 days, FIG. 7
Method: as §1
The effect of guanidine derivatives on a series of thrombin concentrations were analyzed using a clotting assay. A series of liquid thrombin reagents containing 30 mM DMG were prepared by diluting a 100 U/mL thrombin liquid thrombin reagent in MES buffer (containing 30 mM DMG, 20 mM MES, pH 6.3, and 0.1% ProClin™ 300) with MES buffer to final concentrations of 70, 56, 42, 28, 14 or 7 U/mL thrombin. The liquid thrombin reagents were stored at 37° C. for 7 days and tested for thrombin activity using the clotting assay.

**Q.** For CNC(=N)N.O=S(=O)(O)O [1,1 methylguanidine sulfate, 1-methylguanidine sulfate], which “thrombin activity after storage” value [1] is on record?
**A.** Its value is “little or no decrease in thrombin activity”.

**Q.** How did the “factor Xa inhibition” value [2] turn out when CN(Cc1ccccc1)C(=N)N.O=S(=O)(O)O [N-benzyl N-methylguanidine sulfate, N-benzyl, N-methylguanidine sulfate] was run?
**A.** The value was “reduced factor Xa inhibition”.

**Q.** COc1ccc(-n2nc(C(N)=O)c3c2C(=O)N(c2ccc(N4CCCCC4=O)cc2)CC3)cc1 [apixaban] was tested. Which “stability of the liquid thrombin reagent (time-to-clot versus reagent without apixaban)” value [3] did it give?
**A.** Its value is “improves the stability of the liquid thrombin reagent in the long term”.

**Q.** With CCN(CC)C(=N)N [diethylguanidine sulfate, 1,1-diethylguanidine] as the compound, how does the “factor Xa inhibition” value [2] read?
**A.** Its value is “largest extent of factor Xa inhibition”.

**Q.** What about the “thrombin activity after storage” value [1] of the same compound?
**A.** The value was “little or no decrease in thrombin activity”.

**Q.** What does the source list for CN(C)C(=N)N.O=S(=O)(O)O [dimethylguanidine sulfate, 1,1-dimethylguanidine sulfate]?
**A.** factor Xa inhibition [2]: largest extent of factor Xa inhibition; thrombin activity after storage [1]: little or no decrease in thrombin activity; remaining thrombin activity [4]: declined; remaining thrombin activity ([5]; less than about 20 U/mL thrombin): declined; remaining thrombin activity ([5]; more than about 20 U/mL thrombin): did not decline significantly

**Q.** Which “factor Xa inhibition” value [2] does the source give for N=C(N)N.N=C(N)N.O=S(=O)(O)O [guanidine sulfate, reference compound] here?
**A.** Its value is “least reduction in factor Xa inhibition”.
